Marks after values point to notes of the source that are not given here.
Legend:
S100A12 = experiment: Scalp tape strip S100A12 protein; type: in vivo, human
Method: Subjects are enrolled in a double-blind, randomized study for all test groups and have Baseline and Week 3 measurements of scalp health taken for flaking, itch and scalp health endpoints. Subjects take home a test product(s) and are instructed on use of test products throughout the study. Test products are solubilized in a hydroalcoholic leave-on formulation. Azoxystrobin raw material is sourced from AK Scientific Inc. (Union City, Calif.) as >97% pure. Azoxystrobin scalp treatment is prepared from a slurry of azoxystrobin in ethanol that is formulated to 0.1% (w/v) in a base chassis of 50% ethanol, 0.35% Ultrez 21 (rheology modifier), 0.05% neutrol TE and water (q.s.). […] Biomarkers of scalp health, including biomarkers of inflammation, itch, oxidative stress and barrier integrity are assessed by non-invasive tape strip sampling of the scalp surface to determine therapeutic resolution. All biomarkers are analyzed from D-Squame® scalp tape samples that are collected from the scalp of subjects before and after scalp treatment with either azoxystrobin or vehicle (Baseline, and Week 3 respectively). These are extracted and analyzed according to published methods (International Journal of Dermatology 2011, 50, 102-113, incorporated by reference herein). […] S100A12 protein is analyzed to determine the impact of scalp treatment on active inflammatory disease. […]

[1] = cited from earlier work
human scalp (dandruff) = experiment: In vivo scalp health study: adherent scalp flaking score (ASFS)
Method: Subjects are enrolled in a double-blind, randomized study for all test groups and have Baseline and Week 3 measurements of scalp health taken for flaking, itch and scalp health endpoints. Subjects take home a test product(s) and are instructed on use of test products throughout the study. Test products are solubilized in a hydroalcoholic leave-on formulation. Azoxystrobin raw material is sourced from AK Scientific Inc. (Union City, Calif.) as >97% pure. Azoxystrobin scalp treatment is prepared from a slurry of azoxystrobin in ethanol that is formulated to 0.1% (w/v) in a base chassis of 50% ethanol, 0.35% Ultrez 21 (rheology modifier), 0.05% neutrol TE and water (q.s.). Vehicle scalp treatment is prepared similarly without the addition of azoxystrobin raw material. Subjects apply either azoxystrobin or vehicle scalp treatments daily for 3 weeks. Grading of the scalp is performed by qualified expert graders for adherent scalp flaking scores (ASFS) as described in published methods. Detailed methods can be found in Journal of Dermatological Treatment 2014, 25, 232-236, incorporated by reference herein. Briefly, flaking severity of a subject is assessed by examination of the scalp which is illuminated by lighting that mimics daylight conditions. The scalp is divided into eight sections and each section is assessed for the presence of dandruff flakes that are adhering to the scalp skin using a 0 to 10 (increment of 2 units) scale. Loose flakes in the hair are not considered in the grading. The final, or total, ASFS is the sum of the grades for all eight scalp sections, which results in a scale ranging from 0 to 80 units. The change in flaking across time is reported as change from baseline at the 3-week time point.

[2] = tested on: Malassezia furfur (CBS 7982); experiment: In vitro evaluation of antifungal potency (MIC); type: cell-based
Method: Malassezia furfur (CBS 7982) is grown for approximately 24 hours in a 250 ml vent cap polycarbonate Erlenmeyer flask containing approximately 100 ml of mDixon medium and 5 ml of a fully grown M. furfur culture prepared using the same conditions as described. The cells are diluted by mixing 2.5 ml of the 24 hour-old culture per 50 ml of mDixon medium. A Versette robot (ThermoFisher Scientific) is used to transfer 292.5 μl of the dilute cells into each well of a Beckman 267007 polypropylene round bottom deep well plate. All compounds are sourced from Sigma Aldrich (St. Louis, Mo.) and prepared as 10 mg/ml in DMSO. A semipermeable aeraseal membrane is applied to the plate which is then be covered with water-soaked cotton batting. The samples are be shaken at 31° C. on a Heidolph Titramax 100 shaker at 1500 rpm for approximately 72 hours. The plates are shaken at 1250 rpm on an Eppendorf MixMate shaker to disperse the cells before transferring 200 μl to a Corning 3596 polystyrene plate. The samples are shaken again at 950 rpm on a MixMate shaker before the absorbance at 600 nm is read using a Molecular Devices SpectraMax plate reader.

human serum albumin = experiment: Scalp tape strip barrier integrity: human serum albumin; type: in vivo
Method: Subjects are enrolled in a double-blind, randomized study for all test groups and have Baseline and Week 3 measurements of scalp health taken for flaking, itch and scalp health endpoints. Subjects take home a test product(s) and are instructed on use of test products throughout the study. Test products are solubilized in a hydroalcoholic leave-on formulation. […] Azoxystrobin scalp treatment is prepared from a slurry of azoxystrobin in ethanol that is formulated to 0.1% (w/v) in a base chassis of 50% ethanol, 0.35% Ultrez 21 (rheology modifier), 0.05% neutrol TE and water (q.s.). Vehicle scalp treatment is prepared similarly without the addition of azoxystrobin raw material. Subjects apply either azoxystrobin or vehicle scalp treatments daily for 3 weeks. […] All biomarkers are analyzed from D-Squame® scalp tape samples that are collected from the scalp of subjects before and after scalp treatment with either azoxystrobin or vehicle (Baseline, and Week 3 respectively). […] Data analysis is conducted by standard statistical methods and calculations. […] Biochemical markers of skin/scalp barrier integrity are analyzed to evaluate improvements on barrier health. […] Human skin analytes (keratin 1, keratin 10, human serum albumin) are simultaneously quantified using a 3-plea Human Skin Panel LINCOplex Kit (Millipore Corp.). Soluble protein is measured using the BCA™ Protein Assay Kit. […]

[3] = 0.1% leave-on daily, Week 3, scalp tape strips

Question: What does the source list for `CO/C=C(/C(=O)OC)c1ccccc1Oc1cc(Oc2ccccc2C#N)ncn1` [Azoxystrobin]?
Answer: S100A12 Results % Change from Baseline (S100A12; [3]): −71.2* %; reduction of S100A12 levels (S100A12; compared to a placebo control): 71%; solubility in water [1]: low solubility in water; Flaking Results (ASFS Change from Baseline) (human scalp (dandruff); 0.1% (w/v) hydroalcoholic leave-on, daily, 3 weeks, dandruff subjects, scale 0 to 80): −13.88; reduction in flaking (human scalp (dandruff); after 3 weeks of treatment): 45%; ASFS reduction more than the placebo (human scalp (dandruff); after 3 weeks of treatment, p=0.002): 4.7 units; MIC value, Malassezia furfur ([2]; M. furfur CBS 7982, mDixon medium, 31° C., approximately 72 hours, absorbance at 600 nm): 0.39-0.49 ppm; times more potent than pyraclostrobin (MIC) ([2]; Malassezia furfur MIC ratio): 4 times; times more potent than zinc pyrithione (MIC) ([2]; Malassezia furfur MIC ratio): 8 times; Human Serum Albumin % Change from Baseline (human serum albumin; [3]): −54.1* %; reduction in human serum albumin (HSA) changed from a baseline (human serum albumin; 3 weeks of treatment): 54%

— patent US20220192955A1, “AZOXYSTROBIN EFFICACY IN SCALP HEALTH” (The Procter & Gamble Company, priority 2020, published 2022)
